Patent EP4603099A1 (priority 2022, dated 2024)
“Also recorded” adds a separate entry of the source.

Key:
[1] = test system: IAV (H1N1, seasonal isolated strain in 2019); assay type: cell-based, influenza A virus; conditions: human lung explant, 10 µM TFMT; compared with untreated sample
human Mtr1 [2] = molecular target: T1, human Mtr1 (Homo sapiens, UniProt Q8N1G2); test: methyltransferase (MTase) activity assay; conditions: 0.8 µM human MTr1, cap0 RNA, SAM[3H], 37°C overnight
T1 sequence (Q8N1G2 1-835): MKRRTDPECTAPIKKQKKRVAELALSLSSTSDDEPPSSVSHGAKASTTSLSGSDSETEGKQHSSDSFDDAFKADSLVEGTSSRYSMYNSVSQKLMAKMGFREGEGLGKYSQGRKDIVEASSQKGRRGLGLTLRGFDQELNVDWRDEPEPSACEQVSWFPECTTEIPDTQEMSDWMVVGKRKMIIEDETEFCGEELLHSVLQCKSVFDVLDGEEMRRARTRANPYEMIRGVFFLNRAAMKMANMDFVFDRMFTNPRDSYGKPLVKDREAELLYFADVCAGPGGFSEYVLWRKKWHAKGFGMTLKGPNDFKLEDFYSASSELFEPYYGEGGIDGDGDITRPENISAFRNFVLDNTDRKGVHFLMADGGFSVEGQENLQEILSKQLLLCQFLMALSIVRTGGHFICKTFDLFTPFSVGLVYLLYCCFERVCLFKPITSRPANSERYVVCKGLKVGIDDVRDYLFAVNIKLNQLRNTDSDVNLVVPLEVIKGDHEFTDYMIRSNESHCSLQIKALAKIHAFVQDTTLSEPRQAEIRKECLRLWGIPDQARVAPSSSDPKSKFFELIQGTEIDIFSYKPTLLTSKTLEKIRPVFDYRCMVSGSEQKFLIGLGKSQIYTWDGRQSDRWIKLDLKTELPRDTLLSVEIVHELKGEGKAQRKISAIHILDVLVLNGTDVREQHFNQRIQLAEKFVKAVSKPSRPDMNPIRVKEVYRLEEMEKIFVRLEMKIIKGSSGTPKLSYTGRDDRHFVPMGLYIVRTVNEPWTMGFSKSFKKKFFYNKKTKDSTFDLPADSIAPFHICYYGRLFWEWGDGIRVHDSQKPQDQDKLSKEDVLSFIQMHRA
Protocol: The synthesized RNA, 3'-O-Me-m7GpppGpG (pN27), was used in a methyltransferase activity assay of human MT r1.
The reaction sample was purified using a mini quick oligo column (Roche, 11814397001), and free SAM [3H] was removed. The purified sample was diluted with ULTIMA GOLD (PerkinElmer, 6013329), and the methyltransferase activity was measured in terms of the number of disintegrations per minute (DPM) by using a scintillation counter LS6500 (Beckman Coulter).

IBV = test: qRT-PCR analysis of IBV RNA in infected A549 cells; assay type: cell-based, influenza B virus
Protocol: (§1) The cells were recovered with TRIzol (Invitrogen, 15596), and RNA was extracted according to the manufacturer's protocol. The cDNA was purified using a High-Capacity cDNA Reverse Transcription Kit (Applied Biosystems, 43688). Quantitative reverse transcription polymerase chain reaction (qRT-PCR) was carried out using a Fast SYBR Green Master Mix (Applied Biosystems, 4385614) or a TaqMan Fast Advanced Master Mix (Applied Biosystems, 4444558).

[3] = in vivo toxicity in mouse, nasal cavity inoculation, change in body weight; conditions: 2 mg/kg intranasally on day 0 and day 1, C57BL/6 mice
Protocol: Next, the in vivo toxicity in the mouse was evaluated by carrying out nasal cavity inoculation once a day for two days.
TFMT or tubercidin at 2 mg/kg was intranasally administered to C57BL/6 mice on the 0th day of infection and the 1st day of infection (indicated by arrows in the figure).

IAV-GFP SC35M strain = assay type: cell-based, influenza A virus
human Mtr1 [4] = molecular target: T1, human Mtr1; test: thermal shift assay using SYPRO Orange; conditions: ribavirin as control
IFN-β RNA = test: qRT-PCR analysis of IFN-β RNA and other host RNAs in A549 cells; assay type: cell-based, human; conditions: A549 infected or not with IAV PR8 (m.o.i. 1), 10 µM TFMT
Protocol: as §1
1 was analyzed in the presence or absence of 10 µM TFMT.
Each RNA indicated in the figure at the indicated moment at the m.o.i. of 1, in A549 cells which had been infected or not infected with the IAV PR8 strain in the presence or absence of 10 µM TFMT, was analyzed.

IAV PR8 strain [5] = assay type: cell-based, influenza A virus
IAV WSN = test: mouse in vivo IAV infection model, qRT-PCR of IAV RNA in lung tissue; set-up: species or system C57BL/6 mice; conditions: 2 mg/kg intranasally on day 0 and day 1; 2 days after infection, 5 × 10^3 PFU
Protocol: As shown in the figure, the IAV WSN and TFMT were introduced into the nasal cavity. TFMT was added on the 0th day of the IAV WSN infection and the 1st day of the IAV WSN infection.
qRT-PCR analysis (5 × 10^3 PFU) of IAV RNA in the lung tissue of the IAV-infected C57BL/6 mice on the 2nd day was carried out. TFMT of 2 mg/kg was intranasally administered on the 0th day of infection and the 1st day of infection. […] (*p < 0.05, **p < 0.01).

STBV = test: qRT-PCR analysis of STBV RNA in infected A549 cells; assay type: cell-based, Soft tick bunya virus; conditions: A549, m.o.i. 0.1, 24 hours
Protocol: as §1

IAV PR8 strain [6] = test system: IAV PR8 strain
HAZV [7] = assay type: cell-based, Hazara virus
HAZV [8] = assay type: cell-based, Hazara virus; remark: listed apart in the source
[9] = NHBE cells, m.o.i. 1, 24 hours, […]

Compound: Nc1ncnc2c1c(C(F)(F)F)cn2[C@@H]1O[C@H](CO)[C@@H](O)[C@H]1O [TFMT, trifluoromethyl tubercidin]
- virus titer, second figure printed in the same sentence ('and was 100 to 1,000') [1]: 100 to 1,000

Compound: Nc1ncnc2c1ccn2[C@@H]1O[C@H](CO)[C@@H](O)[C@H]1O [tubercidin]
- toxicity (WST-8) (A549 cells; A549 infected with IAV-GFP, 19 hours, tubercidin 0.1 to 100 µM): the toxicity was slight
- MTase activity of the recombinant MTr1 protein (human Mtr1 [2]): inhibits the MTase activity of the recombinant MTr1 protein in a dosage-dependent manner
- effect on IBV infection (IBV; A549, compound added 3 hours before infection (FIG. 19(d))): had an effect on the IBV infectious disease
- change in body weight [3]: caused a significant body weight loss
- anti-IAV activity, rank among 12 commercially available compounds (GFP level) (IAV-GFP SC35M strain): identified as the most effective compound
- inhibition of IAV-GFP (GFP level), dose dependence (IAV-GFP SC35M strain): the inhibition depended on the dose at 0.1 to 100 µM
- binding to recombinant MTr1 (thermal shift) (human Mtr1 [4]): directly binds to the recombinant MTr1

Compound: trifluoromethyl tubercidin [TFMT]
- cell cytotoxicity of combined treatment (WST-8) (A549 cells): without cell cytotoxicity
- in vitro toxicity (WST-8 cell survival rate assay) (A549 cells; A549, within the effective concentration range): no significant in vitro toxicity was confirmed within the effective concentration range
- MTase activity of the recombinant MTr1 protein (human Mtr1 [2]): inhibited
- induction of IFN-β or antiviral ISG (qRT-PCR) (IFN-β RNA): did not induce IFN-β or antiviral ISG
- antiviral activity against IAV (virus RNA, qRT-PCR) (IAV PR8 strain [5]; A549, m.o.i. 1, 24 hours): exhibits an antiviral activity
- dependence of the effect on IAV replication on innate immune factors (IAV RNA segment 7) (IAV PR8 strain [5]; A549, m.o.i. 1, 24 hours (FIG. 29)): independent of the IFIT1-dependent isolation of RNA or RIG-I/MDA5 signaling
- IAV NP level in the mouse lung (IAV RNA segment 5, qRT-PCR) (IAV WSN): significantly reduced
- PB2 mRNA level in the mouse lung (IAV RNA segment 1, qRT-PCR) (IAV WSN): significantly reduced
- antiviral activity against STBV (virus RNA, qRT-PCR) (STBV): does not exhibit an antiviral activity
- cell cytotoxicity in NHBE cells (histological analysis) (IAV PR8 strain [6]): without cell cytotoxicity
- RNA level of IAV (segment 7, qRT-PCR) (IAV PR8 strain [6]; [9]): significantly reduced in a dosage-dependent manner
- protein level of IAV (Western blot) (IAV PR8 strain [6]; [9]): significantly reduced in a dosage-dependent manner
- IAV NP level (immunostaining) (IAV PR8 strain [6]; NHBE cells, m.o.i. 2, 24 hours, 10 µM TFMT): significantly decreased
- HAZV replication (HAZV RNA, qRT-PCR) (HAZV [7]): did not inhibit HAZV replication
- antiviral activity against IBV (virus RNA, qRT-PCR) (IBV; A549, m.o.i. 1, 24 hours): exhibits an antiviral activity
- change in body weight [3]: does not cause body weight loss or cell cytotoxicity
- IAV replication (GFP level), time of addition (IAV-GFP SC35M strain): significantly inhibited IAV replication; also recorded: the effect was reduced or could not be confirmed
- inhibition at the lowest concentration, secondary screening step 3 (IAV-GFP SC35M strain): identified as the most effective compound
- synergistic effect with amantadine (GFP relative fluorescence units, combination index) (IAV-GFP SC35M strain; combination of TFMT and amantadine, […]): exhibited a synergistic effect
- synergistic effect with BXM (GFP relative fluorescence units, combination index) (IAV-GFP SC35M strain; combined treatment of TFMT and BXM, […]): a strong synergistic effect was observed
- IC50 (IAV-GFP SC35M strain; read-out: IC50 for IAV infection): 300 nM
- antiviral activity against HAZV (virus RNA, qRT-PCR) (HAZV [8]): does not exhibit an antiviral activity
